Assay results from patent US20260125382A1, “COMPOUNDS FOR INHIBITING OR DEGRADING CDK2 AND/OR CDK9 AND MEDICINAL USE THEREOF” (KOREA RESEARCH INSTITUTE OF CHEMICAL TECHNOLOGY, priority 2022, published 2026).

Tests used:
CDK9 = biological target: T1, CDK9 (Homo sapiens, UniProt P50750); experiment: CDK protein degradation activity (Western blotting), CDK9; format: cell-based; conditions: MDA-MB-231 cells, 16 hours, Western blot
T1 construct: endogenous in cells; host or cells: MDA-MB-231
In short: (§1)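 Breast cancer line MDA-MB-231, 16 h compound treatment (100 nM–10 μM final, three doses). Immunoblot quantification of CDK2/CDK9 versus tubulin, normalized to DMSO control.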

CDK2 = biological target: T2, CDK2 (Homo sapiens, UniProt P24941); experiment: CDK protein degradation activity (Western blotting), CDK2; format: cell-based; conditions: MDA-MB-231 cells, 16 hours, Western blot
T2 construct: endogenous in cells; host or cells: MDA-MB-231
In short: as §1

T1 sequence (P50750 whole entry): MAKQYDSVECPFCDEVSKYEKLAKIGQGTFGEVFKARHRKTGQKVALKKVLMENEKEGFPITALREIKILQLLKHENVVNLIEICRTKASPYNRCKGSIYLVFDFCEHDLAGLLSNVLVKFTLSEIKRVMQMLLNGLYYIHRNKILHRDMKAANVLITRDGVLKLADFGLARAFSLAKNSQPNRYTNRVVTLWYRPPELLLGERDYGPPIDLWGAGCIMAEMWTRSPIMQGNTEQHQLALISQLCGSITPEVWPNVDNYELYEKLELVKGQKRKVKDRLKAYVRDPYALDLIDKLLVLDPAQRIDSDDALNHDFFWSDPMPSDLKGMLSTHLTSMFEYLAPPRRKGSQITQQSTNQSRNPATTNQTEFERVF

Cc1cccc(C(=O)N[C@H]2C[C@@H](n3cnc4c(NCc5ccc(OCC6CCN(C(=O)CNc7ccc8c(c7)C(=O)N([C@H]7CCC(=O)NC7=O)C8=O)CC6)cc5)ncnc43)C2)n1 [Compound 108, N-((1s,3s)-3-(6-((4-((1-((2-(2,6-dioxopiperidin-3-yl)-1,3-dioxoisoindolin-5-yl)glycyl)piperidin-4-yl)methoxy)benzyl)amino)-9H-purin-9-yl)cyclobutyl)-6-methylpicolinamide]
Enzyme degradation CDK9 (% remaining) @ 0.1 μM (CDK9): 0/0/0% | Enzyme degradation CDK9 (% remaining) @ 1 μM (CDK9): 0/0/0% | Enzyme degradation CDK9 (% remaining) @ 10 μM (CDK9): 0/0/0% | Enzyme degradation CDK2 (% remaining) @ 0.1 μM (CDK2): 30% | Enzyme degradation CDK2 (% remaining) @ 1 μM (CDK2): 30% | Enzyme degradation CDK2 (% remaining) @ 10 μM (CDK2): 60%

Cc1cccc(C(=O)N[C@H]2C[C@@H](n3cnc4c(NCc5ccc(OCC6CCN(C(=O)CNc7cccc8c7C(=O)N([C@H]7CCC(=O)NC7=O)C8=O)CC6)cc5)ncnc43)C2)n1 [Compound 109, N-((1s,3s)-3-(6-((4-((1-((2-(2,6-dioxopiperidin-3-yl)-1,3-dioxoisoindolin-4-yl)glycyl)piperidin-4-yl)methoxy)benzyl)amino)-9H-purin-9-yl)cyclobutyl)-6-methylpicolinamide]
Enzyme degradation CDK9 (% remaining) @ 0.1 μM (CDK9): 0/0/0% | Enzyme degradation CDK9 (% remaining) @ 1 μM (CDK9): 0/0/0% | Enzyme degradation CDK9 (% remaining) @ 10 μM (CDK9): 0/0/0% | Enzyme degradation CDK2 (% remaining) @ 0.1 μM (CDK2): 40% | Enzyme degradation CDK2 (% remaining) @ 1 μM (CDK2): 60% | Enzyme degradation CDK2 (% remaining) @ 10 μM (CDK2): 70%

Cc1cccc(C(=O)NC2CC(n3cnc4c(NCc5ccc(OCC6CCN(c7ccc8c(c7)C(=O)N([C@H]7CCC(=O)NC7=O)C8=O)CC6)cc5)ncnc43)C2)n1 (stereo partly drawn) [Compound 110, N-((1s,3s)-3-(6-((4-((1-(2-(2,6-dioxopiperidin-3-yl)-1,3-dioxoisoindolin-5-yl)piperidin-4-yl)methoxy)benzyl)amino)-9H-purin-9-yl)cyclobutyl)-6-methylpicolinamide]
Enzyme degradation CDK9 (% remaining) @ 0.1 μM (CDK9): 90% | Enzyme degradation CDK9 (% remaining) @ 1 μM (CDK9): 20% | Enzyme degradation CDK9 (% remaining) @ 10 μM (CDK9): 30% | Enzyme degradation CDK2 (% remaining) @ 0.1 μM (CDK2): 100% | Enzyme degradation CDK2 (% remaining) @ 1 μM (CDK2): 60% | Enzyme degradation CDK2 (% remaining) @ 10 μM (CDK2): 80%

Cc1cccc(C(=O)N[C@H]2C[C@@H](n3cnc4c(NCc5ccc(OCCCN6CCN(C(=O)COc7ccc8c(c7)C(=O)N([C@H]7CCC(=O)NC7=O)C8=O)CC6)cc5)ncnc43)C2)n1 [Compound 112, N-((1s,3s)-3-(6-((4-(3-(4-(2-((2-(2,6-dioxopiperidin-3-yl)-1,3-dioxoisoindolin-5-yl)oxy)acetyl)piperazin-1-yl)propoxy)benzyl)amino)-9H-purin-9-yl)cyclobutyl)-6-methylpicolinamide]
Enzyme degradation CDK9 (% remaining) @ 0.1 μM (CDK9): 100% | Enzyme degradation CDK9 (% remaining) @ 1 μM (CDK9): 0% | Enzyme degradation CDK9 (% remaining) @ 10 μM (CDK9): 0% | Enzyme degradation CDK2 (% remaining) @ 0.1 μM (CDK2): 100% | Enzyme degradation CDK2 (% remaining) @ 1 μM (CDK2): 50% | Enzyme degradation CDK2 (% remaining) @ 10 μM (CDK2): 40%

Cc1cccc(C(=O)N[C@H]2C[C@@H](n3cnc4c(NCc5ccc(OCCCN6CCN(C(=O)COc7cccc8c7C(=O)N([C@H]7CCC(=O)NC7=O)C8=O)CC6)cc5)ncnc43)C2)n1 [Compound 113, N-((1s,3s)-3-(6-((4-(3-(4-(2-((2-(2,6-dioxopiperidin-3-yl)-1,3-dioxoisoindolin-4-yl)oxy)acetyl)piperazin-1-yl)propoxy)benzyl)amino)-9H-purin-9-yl)cyclobutyl)-6-methylpicolinamide]
Enzyme degradation CDK9 (% remaining) @ 0.1 μM (CDK9): 100% | Enzyme degradation CDK9 (% remaining) @ 1 μM (CDK9): 10% | Enzyme degradation CDK9 (% remaining) @ 10 μM (CDK9): 0% | Enzyme degradation CDK2 (% remaining) @ 0.1 μM (CDK2): 30/30/30% | Enzyme degradation CDK2 (% remaining) @ 1 μM (CDK2): 30/30/30% | Enzyme degradation CDK2 (% remaining) @ 10 μM (CDK2): 30/30/30%

Cc1cccc(C(=O)NC2CC(n3cnc4c(NCc5ccc(OCCCN6CCN(C(=O)CNc7ccc8c(c7)C(=O)N([C@H]7CCC(=O)NC7=O)C8=O)CC6)cc5)ncnc43)C2)n1 (stereo partly drawn) [Compound 114, N-((1s,3s)-3-(6-((4-(3-(4-((2-(2,6-dioxopiperidin-3-yl)-1,3-dioxoisoindolin-5-yl)glycyl)piperazin-1-yl)propoxy)benzyl)amino)-9H-purin-9-yl)cyclobutyl)-6-methylpicolinamide]
Enzyme degradation CDK9 (% remaining) @ 0.1 μM (CDK9): 0/0/0% | Enzyme degradation CDK9 (% remaining) @ 1 μM (CDK9): 0/0/0% | Enzyme degradation CDK9 (% remaining) @ 10 μM (CDK9): 0/0/0% | Enzyme degradation CDK2 (% remaining) @ 0.1 μM (CDK2): 30% | Enzyme degradation CDK2 (% remaining) @ 1 μM (CDK2): 40% | Enzyme degradation CDK2 (% remaining) @ 10 μM (CDK2): 50%

Cc1cccc(C(=O)N[C@H]2C[C@@H](n3cnc4c(NCc5ccc(OCCCN6CCN(C(=O)CNc7cccc8c7C(=O)N([C@H]7CCC(=O)NC7=O)C8=O)CC6)cc5)ncnc43)C2)n1 [Compound 115, N-((1s,3s)-3-(6-((4-(3-(4-((2-(2,6-dioxopiperidin-3-yl)-1,3-dioxoisoindolin-4-yl)glycyl)piperazin-1-yl)propoxy)benzyl)amino)-9H-purin-9-yl)cyclobutyl)-6-methylpicolinamide]
Enzyme degradation CDK9 (% remaining) @ 0.1 μM (CDK9): 0/0/0% | Enzyme degradation CDK9 (% remaining) @ 1 μM (CDK9): 0/0/0% | Enzyme degradation CDK9 (% remaining) @ 10 μM (CDK9): 0/0/0% | Enzyme degradation CDK2 (% remaining) @ 0.1 μM (CDK2): 30% | Enzyme degradation CDK2 (% remaining) @ 1 μM (CDK2): 40% | Enzyme degradation CDK2 (% remaining) @ 10 μM (CDK2): 50%

Cc1cccc(C(=O)N[C@H]2C[C@@H](n3cnc4c(NCc5ccc(OCCCN6CCN(c7ccc8c(c7)C(=O)N(C7CCC(=O)NC7=O)C8=O)CC6)cc5)ncnc43)C2)n1 (stereo partly drawn) [Compound 116, N-((1s,3s)-3-(6-((4-(3-(4-(2-(2,6-dioxopiperidin-3-yl)-1,3-dioxoisoindolin-5-yl)piperazin-1-yl)propoxy)benzyl)amino)-9H-purin-9-yl)cyclobutyl)-6-methylpicolinamide]
Enzyme degradation CDK9 (% remaining) @ 0.1 μM (CDK9): 10% | Enzyme degradation CDK9 (% remaining) @ 1 μM (CDK9): 0% | Enzyme degradation CDK9 (% remaining) @ 10 μM (CDK9): 0% | Enzyme degradation CDK2 (% remaining) @ 0.1 μM (CDK2): 30% | Enzyme degradation CDK2 (% remaining) @ 1 μM (CDK2): 40% | Enzyme degradation CDK2 (% remaining) @ 10 μM (CDK2): 50%

Cc1cccc(C(=O)N[C@H]2C[C@@H](n3cnc4c(NCc5ccc(OCCCN6CCN(c7cccc8c7C(=O)N([C@H]7CCC(=O)NC7=O)C8=O)CC6)cc5)ncnc43)C2)n1 [Compound 117, N-((1s,3s)-3-(6-((4-(3-(4-(2-(2,6-dioxopiperidin-3-yl)-1,3-dioxoisoindolin-4-yl)piperazin-1-yl)propoxy)benzyl)amino)-9H-purin-9-yl)cyclobutyl)-6-methylpicolinamide]
Enzyme degradation CDK9 (% remaining) @ 0.1 μM (CDK9): 10% | Enzyme degradation CDK9 (% remaining) @ 1 μM (CDK9): 10% | Enzyme degradation CDK9 (% remaining) @ 10 μM (CDK9): 0% | Enzyme degradation CDK2 (% remaining) @ 0.1 μM (CDK2): 80/80/80% | Enzyme degradation CDK2 (% remaining) @ 1 μM (CDK2): 80/80/80% | Enzyme degradation CDK2 (% remaining) @ 10 μM (CDK2): 80/80/80%

Cc1cccc(C(=O)NC2CC(n3cnc4c(NCCC5CCN(CC6CCN(C(=O)COc7cccc8c7C(=O)N([C@H]7CCC(=O)NC7=O)C8=O)CC6)CC5)ncnc43)C2)n1 (stereo partly drawn) [Compound 122, N-((1s,3s)-3-(6-((2-(1-((1-(2-((2-(2,6-dioxopiperidin-3-yl)-1,3-dioxoisoindolin-4-yl)oxy)acetyl)piperidin-4-yl)methyl)piperidin-4-yl)ethyl)amino)-9H-purin-9-yl)cyclobutyl)-6-methylpicolinamide]
Enzyme degradation CDK9 (% remaining) @ 0.1 μM (CDK9): 10% | Enzyme degradation CDK9 (% remaining) @ 1 μM (CDK9): 0% | Enzyme degradation CDK9 (% remaining) @ 10 μM (CDK9): 0% | Enzyme degradation CDK2 (% remaining) @ 0.1 μM (CDK2): 30% | Enzyme degradation CDK2 (% remaining) @ 1 μM (CDK2): 10% | Enzyme degradation CDK2 (% remaining) @ 10 μM (CDK2): 0%

Cc1cccc(C(=O)NC2CC(n3cnc4c(NCCC5CCN(CC6CCN(C(=O)CNc7cccc8c7C(=O)N([C@H]7CCC(=O)NC7=O)C8=O)CC6)CC5)ncnc43)C2)n1 (stereo partly drawn) [Compound 123, N-((1s,3s)-3-(6-((2-(1-((1-((2-(2,6-dioxopiperidin-3-yl)-1,3-dioxoisoindolin-4-yl)glycyl)piperidin-4-yl)methyl)piperidin-4-yl)ethyl)amino)-9H-purin-9-yl)cyclobutyl)-6-methylpicolinamide]
Enzyme degradation CDK9 (% remaining) @ 0.1 μM (CDK9): 0/0/0% | Enzyme degradation CDK9 (% remaining) @ 1 μM (CDK9): 0/0/0% | Enzyme degradation CDK9 (% remaining) @ 10 μM (CDK9): 0/0/0% | Enzyme degradation CDK2 (% remaining) @ 0.1 μM (CDK2): 10% | Enzyme degradation CDK2 (% remaining) @ 1 μM (CDK2): 10% | Enzyme degradation CDK2 (% remaining) @ 10 μM (CDK2): 20%

Cc1cccc(C(=O)N[C@H]2C[C@@H](n3cnc4c(NCCC5CCN(CC6CCN(C(=O)COc7ccc8c(c7)C(=O)N([C@H]7CCC(=O)NC7=O)C8=O)CC6)CC5)ncnc43)C2)n1 [Compound 124, N-((1s,3s)-3-(6-((2-(1-((1-(2-((2-(2,6-dioxopiperidin-3-yl)-1,3-dioxoisoindolin-5-yl)oxy)acetyl)piperidin-4-yl)methyl)piperidin-4-yl)ethyl)amino)-9H-purin-9-yl)cyclobutyl)-6-methylpicolinamide]
Enzyme degradation CDK9 (% remaining) @ 0.1 μM (CDK9): 0/0/0% | Enzyme degradation CDK9 (% remaining) @ 1 μM (CDK9): 0/0/0% | Enzyme degradation CDK9 (% remaining) @ 10 μM (CDK9): 0/0/0% | Enzyme degradation CDK2 (% remaining) @ 0.1 μM (CDK2): 40% | Enzyme degradation CDK2 (% remaining) @ 1 μM (CDK2): 20% | Enzyme degradation CDK2 (% remaining) @ 10 μM (CDK2): 10%
